In patent publication US5726041A, “Method for detecting a receptor-ligand complex using a cytochrome P450 reporter gene” (priority 1996, dated 1998):
Like-named read-outs stand apart in the source and are kept apart here.

Assays:
[1] = test system: AHH-1 TK± cells
Excerpt: The reporter gene expression as reported in previous tables and figures is expressed as pmoles product/well in a 96 well microtiter plate as measured fluorometrically. […] A toxicity curve reflecting the relative number of cells/well present at the end of treatment was obtained as a function of chemical concentration. […] This suppression can be corrected for by determining the cell concentration in the well or by determining the suppression of CH activity in a cell line which constitutively expresses the reporter.

[2] = target: T1, mouse PPARα (Mus musculus, UniProt P23204); test: Native PPARα / PPRE CYP2A6 reporter, coumarin 7-hydroxylase induction; settings: for fold induction at 1100 µM: 1.1 mM clofibrate vs basal; for maximal fold induction: read-out: Maximum Fold Induction, clofibrate-induced CYP2A6 activity
T1 sequence (P23204 1-468): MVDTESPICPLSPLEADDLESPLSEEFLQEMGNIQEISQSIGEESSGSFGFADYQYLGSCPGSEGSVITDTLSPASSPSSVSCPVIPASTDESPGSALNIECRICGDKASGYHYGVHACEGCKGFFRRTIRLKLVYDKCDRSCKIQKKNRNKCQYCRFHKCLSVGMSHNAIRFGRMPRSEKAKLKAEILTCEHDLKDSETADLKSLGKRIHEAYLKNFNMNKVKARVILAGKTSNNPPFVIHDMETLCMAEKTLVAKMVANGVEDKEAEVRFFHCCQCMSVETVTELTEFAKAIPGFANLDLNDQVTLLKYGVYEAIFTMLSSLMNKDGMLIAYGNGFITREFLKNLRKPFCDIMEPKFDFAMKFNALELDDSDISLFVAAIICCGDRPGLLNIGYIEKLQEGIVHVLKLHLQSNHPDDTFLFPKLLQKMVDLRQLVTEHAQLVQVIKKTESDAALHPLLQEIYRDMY
Experimental: (§1) MMTV-LTR1 is native, MMTV-LTR2 is minus CpG, MMTV-LTR3 is TATA only. Orientation is relative to reporter. CH activity is pmole per 10^6 cell min. Assuming the cells double every 24 hours, the maximium cell density is 2×10^6 cells per ml, using the log average cell concentration for each day of exposure. Earliest post fusion-values were used. […] It is merely a concentration in the monotonic portion of the dose response curve which has been used consistently in many experiments.
The comparison was performed by incubating 0.2 ml cells for 3 days in the wells of a microtiter plate at an initial cell concentration of 5×10^5 cells per ml in the presence of increasing amounts of inducer and 50 uM coumarin.
(§2) In this test we used an initial cell concentration of 2 million cells/ml contained in 0.2 ml culture medium per well of a 96 well microtiter plate. Coumarin (0.05 mM) and clofibrate (concentration was an experimental variable) were added at the beginning of the incubation time. Cells were incubated for 3 days and the 7-hydroxycoumarin content in the wells was analyzed by fluorescence with excitation at 360 nm and emission at 460 nm using a Cytofluor 2350 (Millipore). […] The elevation in pH increases 7-hydroxycoumarin fluorescence by increasing the proportion of the fluorochrome which is ionized. Quantitation was achieved by comparison to a 7-hydroxycoumarin standard curve.
The ACO-PPRE constructs were centrifuged and resuspended at a density of 2 million cells per milliliter in RPMI media with 9% horse serum. One hundred microliters of the cell suspension was distributed into a total of four rows, two rows being at the opposite end of a 96 well microtiter plate. One set was labeled as clofibrate and the other set was labeled as the blank. Clofibrate was then added at concentration of 3 mM, 2 mM, 1 mM, 0.5 mM & 0 mM to the appropriate wells. Stock concentration of clofibrate was 50 mM in 75 mM NaOH. One hundred microliters of media containing 100 micromolar coumarin was then added to the clofibrate containing wells. The negative control contained cell suspension and 100 uM coumarin only. The plates were placed at […] for three days. In a distinct set of wells, one hundred microliters of hydroxy-coumarin standard was placed in two rows The concentrations are in units of pmoles and the values are: 1250, 625, 313, 156, 78, 39, 19.5 & 0. At the end of the three day incubation period, one hundred microliters of media containing 100 uM coumarin was added to the wells labeled as blank. Next 0.1M Tris pH 9.0 was distributed to the contents of each well. Fluorescence was analyzed with a cytofluor 2350 (Millipore) with excitation at 360 nm and emission at 460 nm (both filters with a 40 nm bandwidth). The net fluorence was calculated by subtracting the fluorescence of the blank wells from the fluorescence of the test wells for each clofibrate concentration. Conversion to pmole product per well was accomplished by comparison to the fluorescence of the standards. The responsiveness of the different constructs to clofibrate induction was measured immediately after viable, hygromycin resistant cells were obtained and periodically thereafter in order to evaluate the stability of the system. The data were graphed as the fold induction relative to the without clofibrate control incubation. This is a measure of the responsiveness of the system and corrects for differences in the negative control values for the different reporter constructs.

[3] = test system: reporter construct without PPARα; test: CYP2A6 reporter in control cells without PPARα or chimeric receptor; settings: for fold induction at 1100 µM: Homo sapiens, 1.1 mM clofibrate vs basal
Experimental: (§3) Cells containing chimeric receptors for the rat, mouse and human PPARα ligand binding domain and rat GR DNA binding domain, as well as control cells, were examined for CH induction by clofibrate in the presence of LPS and spironolactone during clofibrate treatment. Incubations contained 5 ug/ml E. coli lipopolysaccharide and 10 uM spironolactone and were uncorrected for cell progression. Incubations were performed under the same conditions as described above. […] Cells were grown in a volume of 0.2 ml in the wells of a 96 well microtiter plate from an initial cell density of 5×10^5 cells per ml. […] The T194, T194/T144 and T194/EH#7 cell lines contain the mouse PPARα cDNA.
as §1
The above-described assay conditions were used and the results were normalized to the respective basal expression levels.
as §2

[4] = test system: PPARα/GR chimeric receptors
Experimental: as §3

[5] = target: T2, hPPAR (Homo sapiens, UniProt Q07869); test: cell-based; settings: 1.1 mM clofibrate vs basal
T2 sequence (Q07869 1-468): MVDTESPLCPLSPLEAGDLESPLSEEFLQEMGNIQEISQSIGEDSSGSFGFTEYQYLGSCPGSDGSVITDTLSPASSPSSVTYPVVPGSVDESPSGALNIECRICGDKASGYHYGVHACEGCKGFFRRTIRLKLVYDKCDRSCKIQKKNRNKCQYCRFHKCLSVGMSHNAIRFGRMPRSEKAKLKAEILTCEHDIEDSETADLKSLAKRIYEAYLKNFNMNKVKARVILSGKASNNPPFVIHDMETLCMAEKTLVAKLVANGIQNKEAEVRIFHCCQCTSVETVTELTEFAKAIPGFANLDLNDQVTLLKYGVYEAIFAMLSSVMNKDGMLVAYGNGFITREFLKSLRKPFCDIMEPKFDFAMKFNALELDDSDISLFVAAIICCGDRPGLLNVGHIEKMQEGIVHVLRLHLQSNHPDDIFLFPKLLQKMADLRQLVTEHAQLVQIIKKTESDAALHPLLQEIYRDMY
Experimental: as §1

Question: Which results are given for CCOC(=O)C(C)(C)Oc1ccc(Cl)cc1 [clofibrate]?
Answer: difference in toxicity among cell lines [1]: No differences in toxicity; toxicity to the cells [1]: toxic; CYP2A6-catalyzed coumarin 7-hydroxylase activity upon treatment of the cells [2]: concentration dependent increase; clofibrate-induced activity relative to background levels [2]: 3 to 10 times; fold induction after growth in exponential cell culture [2]: about 2 fold; fold induction, initial [2]: 4 to 6 fold; increase in CYP2A6 expression after exposure to clofibrate [2]: greater than 10 fold; potency rank on a molar basis [2]: then clofibrate; ranking of chemicals of known ability to induce peroxisome proliferation [2]: correctly rank; reporter gene expression, concentration response [2]: concentration-dependent increases; signal-to-noise ratio [2]: about 10; fold induction at 1100 µM ([2]; read-out: Coumarin Hydroxylase Activity Induced (Fold), cell line 7.10/T225, receptor orientation 3'-5' (HSVtk mPPAR; SV40, JCO, HSVtk#7)): 0.9; fold induction at 1100 µM ([2]; read-out: Coumarin Hydroxylase Activity Induced (Fold), cell line 7.3/T225, receptor orientation 3'-5' (HSVtk mPPAR; SV40, JCO, HSVtk#7)): 0.9; fold induction at 1100 µM ([2]; read-out: Coumarin Hydroxylase Activity Induced (Fold), cell line 7.3/T225, receptor orientation 5'-3' (HSVtk mPPAR; SV40, JCO, HSVtk#7)): 1.5; fold induction at 1100 µM ([2]; read-out: Coumarin Hydroxylase Activity Induced (Fold), cell line T194 (SV40 3'-5' mPPAR; HSVtk-OCT, ACO, HSVtkL15)): 1.5; fold induction at 1100 µM ([2]; read-out: Coumarin Hydroxylase Activity Induced (Fold), cell line T194/HSVtk#7 (SV40 3'-5' mPPAR; SV40, ACO, HSVtk#7)): 3.3; fold induction at 1100 µM ([2]; read-out: Coumarin Hydroxylase Activity Induced (Fold), cell line T194/T144 (SV40 3'-5' mPPAR; SV40, ACO, MMTV-LTR3)): 1.2; fold induction at 1100 µM ([2]; read-out: Coumarin Hydroxylase Activity Induced (Fold), cell line T247 (HSVtk 3'-5' mPPAR; HSVtk-OCT, JCO, HSVtkL15)): 1.2; maximal fold induction ([2]; high copy number reporter, vector T144/194, clone 6-1, sequential independent determinations): 1.57; maximal fold induction ([2]; high copy number reporter, vector T144/194, clone 6-3, sequential independent determinations): 1.17; maximal fold induction ([2]; high copy number reporter, vector T144/194, clone 6-4): 1.36; maximal fold induction ([2]; high copy number reporter, vector T194EH#7, clone 8-1): 1.04; maximal fold induction ([2]; high copy number reporter, vector T194EH#7, clone 8-5, sequential independent determinations): 1.27; maximal fold induction ([2]; high copy number reporter, vector T194EH#7, clone 8-11): 1.15; maximal fold induction ([2]; high copy number reporter, vector T194EH#7, clone 8-12): 1.21; maximal fold induction ([2]; high copy number reporter, vector T194EH#7, clone 8-14): 1.15; maximal fold induction ([2]; vector T194EH#7, clone 8-6 (probably no functional high copy reporter)): 3.44; maximal fold induction ([2]; vector T194EH#7, clone 8-16 (probably no functional high copy reporter)): 3.73; 7-hydroxycoumarin production in control cells [3]: No increase; clofibrate induction of CH activity in cells containing the reporter alone [3]: did not respond; induction of 7-hydroxycoumarin production in the absence of the PPARα [3]: no induction; fold induction at 1100 µM ([3]; read-out: Coumarin Hydroxylase Activity Induced (Fold), cell line T192 (no receptor; HSVtk-OCT, ACO, HSVtkL15)): 0.8; fold induction at 1100 µM ([3]; read-out: Coumarin Hydroxylase Activity Induced (Fold), cell line T192/T144 (no receptor; HSVtk-OCT, ACO, MMTV-LTR3)): 0.7; fold induction at 1100 µM ([3]; read-out: Coumarin Hydroxylase Activity Induced (Fold), cell line T245 (no receptor; HSVtk-OCT, JCO, HSVtkL15)): 0.9; 7-hydroxycoumarin production by cell lines containing the chimeras [4]: very small but detectable, concentration-dependent increase; fold induction at 1100 µM ([5]; read-out: Coumarin Hydroxylase Activity Induced (Fold), cell line T248 (HSVtk 3'-5' hPPAR; HSVtk-OCT, JCO, HSVtkL15)): 0.9; fold induction at 1100 µM ([5]; read-out: Coumarin Hydroxylase Activity Induced (Fold), cell line T249 (HSVtk 3'-5' hPPAR; HSVtk-OCT, JCO, HSVtkL15)): 1.1
